Consider 2 compounds from publication PMC10708954, “Exploring the Effect of Compound Glycyrrhizin and Silybinin on the Metabolism of Pexidartinib in Rats Based on CYP3A4 and CYP2C9” (Advances in Pharmacological and Pharmaceutical Sciences, 2023).

Broadly, the Cmax is the maximum level reached in the sampled fluid or tissue. Broadly, the Tmax is the time from dosing to the highest level. One may read the half-life as the time in which the quantity being followed falls by half.

A short description of data set [1]: Pharmacokinetics of PXD in rat plasma (HPLC-UV) after 14 days pretreatment with saline, silybinin or CG. The data set is classed as in vivo, rats. Conditions: for Cmax / Tmax / half-life / CL/F / Vd/F: rat, plasma, rats, n = 6, mean ± SD; for CL/F: read-out: CLz/F (converted); for Vd/F: read-out: Vz/F. The method, then: Group B was gavaged with silybinin aqueous solution 150 mg/kg (containing silybinin 21 mg/kg), group C was gavaged with compound glycyrrhizin aqueous solution 13.5 mg/kg (containing glycyrrhizin 4.5 mg/kg), and in contrast, group A was gavaged with an equal amount of saline. After 14-days of administration, three groups were given 40 mg/kg PXD. 0.5 mL of blood was taken from the caudal vein at 0.25, 0.50, 1.00, 2.00, 3.00, 4.00, 6.00, 8.00, 12.00, 24.00, and 48.00 h after being gavaged and added to EP tubes containing heparin, followed by centrifugation at 3500 rpm for 15 min, and finally the supernatant was stored at −20°C and stored for measurement.
The apparatus used in the chromatographic analysis of this work was an 1100 series high-performance liquid chromatography (product of Agilent, USA), which mainly included a vacuum degasser, a four-component infusion pump, an automatic sampler, a column temperature box, and a DAD detector. The fundamental steps were as follows. First of all, the chromatographic separation was carried out on a Venusil C18 column (4.6 mm × 250 mm, 5 μm). Subsequently, the analytes were thoroughly separated under the mobile phase water, acetonitrile, and 0.2% TFA (37 : 43 : 20).
After preparatory 2 ml EP tubes, 300 μL of plasma samples and 15 μL of 10 ng/ml of alpelisib working solution were pipetted separately, followed by 300 μL of 10% sodium carbonate solution, mixed well, and then 1.0 ml of ethyl acetate was included to sediment the proteins. The mixture was vortexed for 2.0 min and subsequently centrifuged at 3500 rpm for 20 min at 4°C. At last, 900 μL of the upper organic phase was transferred to a fresh EP tube, blown dry with an air stream at 50°C, and then redissolved with 100 μL of mobile phase, and 20 μL was sampled for the assay.
In the current study, the drug concentration of PXD in rat plasma was plotted versus the time curve as well as all the bar graphs using GraphPad Prism 8.0 software. Then, DAS (Drug And Statistics) 2.0 software (Shanghai University of Traditional Chinese Medicine, China) was employed to get the main pharmacokinetic parameters of the analytes in nonatrial mode. Then, a one-way analysis of variance (ANOVA) was performed using SPSS (statistical product and service solutions) 25.0 software, while finally, an independent samples t-test was applied to the comparison of major pharmacokinetic parameters between the two groups, where Tmax was tested using rank sum test. Statistical significance was indicated by P < 0.05.

Data set [2] deals with CYP3A4. In words: Western blot of CYP3A4 protein expression in rat liver. The method, then: (§1) The rats in all five groups were gavaged once a day for fourteen consecutive days. Groups E and G were gavaged with 150 mg/kg aqueous solution of silybinin (containing 21 mg/kg silybinin), groups F and H were gavaged with 13.5 mg/kg aqueous solution of compound glycyrrhizin (containing 4.5 mg/kg glycyrrhizin), and from the 15-days onwards, groups G and H were given 40 mg/kg of PXD per day for a total of 7-days, and equal amounts of saline were given to groups E and F. Group D was gavaged with equal amounts of saline until the end of the experiment. After gavage for 21 days, rats in each group were anesthetized with 10% urethane, and their fresh livers were snap-frozen in liquid nitrogen and stored at −80°C for subsequent experiments.
(§2) Fresh livers were removed at −80°C and weighed portions were homogenized in ep tubes with lysis buffer containing 0.1% PMSF. We prepared 12% SDS-PAGE routine gel, then each group took the corresponding protein samples and prestained Marker samples, 80 V constant voltage for 90 min, the voltage was adjusted to 120 V, and electrophoresis was continued for 30 min. […] Imaging was performed using Imgage-ProPlus 6.0 software and quantitative analysis was performed using Image J software.
(In general: Immunoblotting shows a protein as a band on a membrane.)

Data set [3] relates to CYP2C9. The data set can be described thus: Western blot of CYP2C9 protein expression in rat liver. How it is done:
as §1, §2

Where [4] appears, read: group B (silybinin pretreatment) compared to group A, P < 0.01.
Setting [5] is: group B (silybinin pretreatment) compared to group A, P < 0.05.
[6] abbreviates: group C (CG pretreatment) compared to group A, P < 0.05.
Setting [7] is: po, 40 mg/kg, Group A (control: saline 14 days, then single oral 40 mg/kg PXD).
Where [8] appears, read: po, 40 mg/kg, Group B (silybinin aqueous solution 150 mg/kg, containing silybinin 21 mg/kg, 14 days, then single oral 40 mg/kg PXD).
Setting [9] is: Group C (compound glycyrrhizin aqueous solution 13.5 mg/kg, containing glycyrrhizin 4.5 mg/kg, 14 days, then single oral 40 mg/kg PXD).

Read-outs that look alike come from different tables or passages of the source.

On to `FC(F)(F)c1ccc(CNc2ccc(Cc3c[nH]c4ncc(Cl)cc34)cn2)cn1` [PXD, Pexidartinib], for which, in data set [1] (setting [4]), the “decrease of Vz/F” value was found to be 31.78%, the “increase of AUC0⟶t” value worked out at 28.97% and the “increase of AUC0⟶∞” value was 26.74%. Also, in data set [1] (setting [5]), the “decrease of CLz/F” value came to 20.69% and the “increase of Cmax” value turned out to be 20.72%. Also, the “increase of Cmax” value in data set [1] (group C (CG pretreatment) compared to group A, P < 0.01) amounted to 36.25%. Further, in data set [1] (setting [6]), the “increase of AUC0⟶t” value was 20.98% and the “increase of AUC0⟶∞” value was determined as 21.22%. In data set [1] (setting [7]), the Cmax came to 10800 ± 1140 ng/mL, the Tmax is 4.33 ± 1.37 h, the half-life was 9.83 ± 3.13 h and the CL/F is 4.83 mL/min/kg. For the same compound, the Vd/F in data set [1] (setting [7]) is 4.09 ± 1.16 L/kg. Also, in data set [1] (setting [8]), the Cmax worked out at 13000 ± 1160 ng/mL, the Tmax stood at 4.17 ± 0.98 h, the half-life is 8.49 ± 3.3 h and the CL/F is 3.83 mL/min/kg. Further, the Vd/F in data set [1] (setting [8]) was 2.79 ± 1.03 L/kg. Moreover, in data set [1] (setting [9]), the maximum concentration (Cmax) amounted to 14700 ± 2390 ng/mL, the Tmax came to 4.1 ± 1.1 h, the half-life is 5.23 ± 1.13 h and the CL/F was 4.17 mL/min/kg. Also, in data set [1] (setting [9]), the Vd/F is 1.81 ± 0.3 L/kg. The “effect of PXD on the protein expression of CYP3A4” value in data set [2] (40 mg/kg PXD per day for 7 days after silybinin or CG) is given as “inducing effect”. Also, the “effect of PXD on the protein expression of CYP2C9” value in data set [3] (rat, in vivo, 40 mg/kg) is on record as “inducing effect”.

In the case of `COc1cc(C2Oc3cc([C@H]4Oc5cc(O)cc(O)c5C(=O)[C@@H]4O)ccc3OC2CO)ccc1O` (stereo partly drawn) [silybinin, Silybinin], the “protein expression level of CYP3A4” value in data set [2] (gavage 21 days, compared with the control group, P < 0.05 and P < 0.01) is “decreased”. Further, the “protein expression level of CYP2C9” value in data set [3] (rat liver, gavage 21 days, compared with the control group, P < 0.05 and P < 0.01) is “decreased”.
